Experiments:
Type in all cases: cell-based, human
[1] = tested on: colonic epithelial T84 cells (calcium-mediated chloride ion secretion); test: Inhibition of calcium-mediated chloride ion secretion (Table I summary)
Summary of the method: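 T84 monolayers (passages 18-48, 7-10 days on permeable supports) preincubated with 100, 200 or 400 μM Bt2-Ins(3,4,5,6)P4/AM for 30 min before Ussing-chamber mounting. After another 30 min, 0.1 mM histamine added; chloride secretion recorded as voltage-clamped short circuit current (Isc).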

[2] = tested on: Ins(3,4,5,6)P4; test: Intracellular Ins(3,4,5,6)P4 level in (3H)-inositol labeled T84 cells; conditions: 400 μM D,L-Bt3 -Ins(1,3,4)P3 /AM
[3] = tested on: T84 cells (carbachol-stimulated chloride ion secretion); test: Carbachol-stimulated (calcium-mediated) chloride ion secretion in T84 cells
Method: The cell permeable derivative D,L-Bt3 -Ins(1,3,4)P3 /AM was synthesized. Colonic epithelial T84 cells were preincubated for 30 min with 400 μM D,L-Bt3 -Ins(1,3,4)P3 /AM prior to mounting in Ussing chambers and measuring ΔIsc. At 10 min, carbachol (10^-4 M) was added to transiently stimulate calcium-mediated chloride ion secretion. Data were the average of 8 experiments with p<0.04, unpaired, two-sided student's t-test. […]

[4] = tested on: T84 cells (histamine-stimulated chloride ion secretion); test: Histamine-stimulated chloride ion secretion (short circuit current) in T84 monolayers
Method: Enantiomerically pure 1,2-Bt2 -Ins(3,4,5,6)P4 /AM was synthesized to determine if 1,2-Bt2 -Ins(3,4,5,6)P4 /AM mediates the uncoupling of chloride ion secretion from intracellular calcium concentrations. […] After 7-10 days of incubation on SNAP-WELLS (Corning Costar; Cambridge, Mass.), monolayers had formed tight junctions. Cell monolayers were preincubated with 100, 200 or 400 μM Bt2 -Ins(3,4,5,6)P4 /AM for 30 min prior to mounting. After an additional 30 min, 0.1 mM histamine was added and chloride ion secretion was monitored. Chloride ion secretion was measured as short circuit current (Isc) across T84 monolayers grown to confluence and mounted in Ussing chambers equipped with voltage clamps (Physiologic Instruments; San Diego, Calif.). Data was acquired and analyzed using "Acquire and Analyze" software (Physiologic Instruments).
Initial studies were directed towards understanding structural determinants of Ins(3,4,5,6)P4 responsible for the inhibitory effect on calcium-mediated chloride ion secretion. A series of cell permeable inositol polyphosphate derivatives were synthesized. These derivatives contained either one or two non-hydrolyzable chemical groups on the 1, 2 or 3 position. T84 monolayers were preincubated for 30 minutes with 200 μM of 2-Bt-1-Me-Ins(3,4,5,6)P4 /AM, Me2 -Ins(3,4,5,6)P4 /AM, Me2 -Ins(1,4,5,6)P4 /AM or 2-Bt-3-Me-Ins(1,4,5,6)P4 /AM.
Following the incubation, cells were mounted in Ussing chambers. Calcium-mediated chloride ion secretion was stimulated with histamine (10^-4 M). Control values were the response to histamine in coincubated monolayers. Data are represented as mean peak ΔIsc ±SEM, expressed as % control for 8 to 10 experiments. Significant differences were identified using the Student's two-tailed t test.

[5] = tested on: intracellular calcium; test: Intracellular calcium concentration in treated cells
Method: Elevation in intracellular calcium concentration leads to increased chloride ion secretion. To ensure that none of the effects of the inositol polyphosphate derivatives on chloride ion secretion were due to changes in calcium levels, the concentration of intracellular calcium was measured in cells treated with the inositol polyphosphate derivatives. […] None of the compounds tested altered intracellular calcium levels by themselves or modified levels of intracellular calcium stimulated with carbachol or thapsigargin. Therefore, the effects of inositol polyphosphate derivatives on chloride ion secretion are not due to any effect on intracellular calcium concentrations.

[6] = tested on: T84 cells (EGF induced inhibition of chloride ion secretion); test: EGF induced inhibition of carbachol-stimulated chloride ion secretion in T84 cells and its reversal; conditions: EGF 16.3 nM, carbachol 100 μM
Method: After an additional 15 min incubation, 100 μM carbachol was added to acutely elevate intracellular calcium concentrations. Controls also were stimulated with carbachol but were not pretreated with EGF. Data are the means of duplicate measurements from a representative experiment (total of three experiments).

[7] = tested on: T84 cells (PtdInsP3-mediated decrease in chloride ion secretion); test: Reversal of PtdInsP3-mediated decrease in chloride ion secretion in T84 cells; conditions: FIG. 7d, 7e
Method: T84 cells also were preincubated with cell permeable Ins(1,4,5,6)P4 derivatives to determine whether Ins(1,4,5,6)P4 can reverse PtdInsP3 -mediated decreases in chloride ion secretion.

[8] = tested on: T84 cells (EGF inhibition of cyclic AMP-mediated chloride ion secretion); test: EGF inhibition of cyclic AMP-mediated chloride ion secretion, reversal

SMILES	Mechanism and Inositol Polyphosphate Pathway Affected ([1]; pathway: Ins (3,4,5,6)P4)	increase in Ins(3,4,5,6)P4 [2]	peak ΔIsc ([3]; 400 μM, 30 min preincubation, carbachol 10^-4 M, 8 experiments, control 15.2±2.8, p<0.04)	inhibition at 400 µM ([3]; Homo sapiens, 0.5 h, 400 μM D,L-Bt3 -Ins(1,3,4)P3 /AM, read-out: decrease of calcium-mediated chloride ion secretion) [%]	effect on carbachol-stimulated / calcium-mediated chloride ion secretion (in words) ([3]; T84 cells, preincubation)	Mechanism and Inositol Polyphosphate Pathway Affected ([1]; pathway: PtdInsP3)	activity at 400 µM ([4]; Homo sapiens, T84, 0.5 h, 400 μM compound alone, mean ± SEM, read-out: Peak ΔIsc (% Control) after histamine (100 μM)) [%]	effect on histamine-stimulated / calcium-mediated chloride ion secretion (in words) ([4]; T84 cells)	effect on intracellular calcium (in words) ([5]; alone)	effect on calcium response to thapsigargin or carbachol (in words) ([5]; thapsigargin or carbachol stimulated)	effect on carbachol-stimulated chloride ion secretion / EGF induced inhibition (in words) [6]	effect on carbachol-stimulated chloride ion secretion / EGF induced inhibition (in words) ([6]; listed as Bt2 Ins(1,4,5,6)P4 /AM)	effect on PtdInsP3-mediated decrease in chloride ion secretion (in words) [7]	reversal of EGF inhibition of cyclic AMP-mediated chloride ion secretion (in words) [8]
CCCC(=O)O[C@@H]1[C@@H](OC(=O)CCC)[C@H](OP(=O)(OCOC(C)=O)OCOC(C)=O)[C@@H](OP(=O)(OCOC(C)=O)OCOC(C)=O)[C@@H](OC(=O)CCC)[C@H]1OP(=O)(OCOC(C)=O)OCOC(C)=O (relative stereo) [D,L-Bt3 -Ins(1,3,4)P3 /AM, D,L-2,5,6-tri-O-butyryl-myo-inositol 1,3,4-trisphosphate hex (acetoxymethyl) ester]	Agonist of	three-fold increase	7.9±1.6	~50	inhibits calcium-mediated chloride ion secretion									
CCCC(=O)O[C@@H]1[C@H](OC(=O)CCC)[C@@H](OP(=O)(OCOC(C)=O)OCOC(C)=O)[C@H](OP(=O)(OCOC(C)=O)OCOC(C)=O)[C@@H](OP(=O)(OCOC(C)=O)OCOC(C)=O)[C@@H]1OP(=O)(OCOC(C)=O)OCOC(C)=O [Bt2 -Ins(1,4,5,6)P4 /AM, 2,3-di-O butyryl-myo-inositol 1,4,5,6-TKphosphate oct (acetoxymethyl) ester]						Antagonist of	138 ± 20.7	did not inhibit chloride ion secretion and in fact led to a slight increase in chloride ion secretion	did not elevate intracellular calcium	did not elevate intracellular calcium or the calcium response to thapsigargin	enhances chloride ion secretion	significantly reversed EGF induced inhibition of chloride ion secretion	enhances chloride ion secretion	did not reverse EGF inhibition of cyclic AMP-mediated chloride ion secretion

— patent US5880099A, “Inositol polyphosphates and methods of using same” (The Regents of the University of California, priority 1997, dated 1999)
